What was measured:
[1] = system: T47D; experiment: AlamarBlue cell viability assay, T47D; assay type: cell-based; settings: Homo sapiens, Mammary
Source text: (§1) (A) Inhibitory concentration 50% (IC50) values for compound 43 in the MC cell lines are tabulated, using an AlamarBlue™ cell viability assay as previously described in Pandey V et al., Breast Cancer Res. 2014; 16(5):429. (B) Measured dose-dependent manner effect of compound 43 on the viability of MC cells (left-side, TFF3-high and right, TFF3-low) using AlamarBlue™ viability assay as previously described (ibid). (C) Apoptotic cell death of mammary carcinoma cell lines measured after treatment with 10 μM compound 43 using flow cytometry analysis at 24 hour as described previously in Keerthy H K et al., PloS one. 2014; 9(9):e107118. Annexin V-FITC staining is indicated on the X-axis and PI staining on the Y-axis. […] Acquisition of Annexin V and PI data were represented as percentage (%) in each quadrant. Note: CM, conditioned media; MCF10A and MCF12A, non-transformed immortalized-mammary epithelial cell line. Points are mean of triplicate experiments; bars, ±SD. Statistical significance was assessed by using an unpaired two-tailed Student's t test (P<0.05 was considered as significant) using GraphPad Prism5. […]
(§2) In table 9 IC50 values of compound 43 compound library in several cancer cell lines are tabulated, using an AlamarBlue® cell viability assay as previously described in Pandey V et al., Breast Cancer Res. 2014; 16(5):429. Statistical analysis was assessed by using GraphPad Prism5. […]

[2] = system: BT20; experiment: AlamarBlue cell viability assay, BT20; assay type: cell-based; settings: Homo sapiens, BT-20, Mammary
Source text: as §1, §2

[3] = system: MDA-MB-436; experiment: AlamarBlue cell viability assay, MDA-MB-436; assay type: cell-based; settings: Homo sapiens, Mammary
Source text: as §1, §2

[4] = system: ECC1; experiment: AlamarBlue cell viability assay, ECC1; assay type: cell-based; settings: Homo sapiens, ECC-1, Endometrial
Description: (§3) The human immortalized mammary epithelial cell lines, MCF10A, and MCF12A; and immortalized hepatocellular epithelial cell line, LO2 were obtained from the American Type Culture Collection (ATCC, Rockville, Md.) and were cultured as per ATCC propagation instructions. MC cell lines, MCF7, T47D, BT474, BT20, MDA-MB-361, MDA-MB-436, MDA-MB-468, and MDA-MB-231; endometrial carcinoma cell lines, Ishikawa, ECC1, RL95-2 and AN3; hepatocellular carcinoma cell lines, Hep3B, H2P, and H2M; colon carcinoma cell lines, DLD-1, and Caco-2; and prostate carcinoma cell lines, PC3, LNCaP, and DU145 were obtained from the American Type Culture Collection (ATCC, Rockville, Md.). Pancreatic carcinoma cell lines, AsPC-1 and BxPC-3; Lung carcinoma cell lines, HCC-827, NCI-H1975, HCC-4006, PC-14, and NCI-H1299; and Thyroid carcinoma cell lines HTH83, CAL62, T238, and OGK-M were obtained from Prof. H. Phillip Koeffler's laboratory at The Cancer Science Institute of Singapore, National University of Singapore (NUS). Gastric carcinoma cell lines, AGS, MKN-28, MKN-45, and A2-528 were obtained from Prof. […]
as §2

[5] = system: AN3; experiment: AlamarBlue cell viability assay, AN3; assay type: cell-based; settings: Homo sapiens, Endometrial
Description: as §3, §2

[6] = system: HCC4006; experiment: AlamarBlue cell viability assay, HCC4006; assay type: cell-based; settings: Homo sapiens, Lung
Description: as §3, §2

[7] = system: H1299; experiment: AlamarBlue cell viability assay, H1299; assay type: cell-based; settings: Homo sapiens, NCI-H1299, Lung
Description: as §3, §2

[8] = system: PC-14; experiment: AlamarBlue cell viability assay, PC-14; assay type: cell-based; settings: Homo sapiens, Lung
Description: as §3, §2

[9] = system: Hep3B; experiment: AlamarBlue cell viability assay, Hep3B; assay type: cell-based; settings: Homo sapiens, Hepatocellular
Description: as §3, §2

[10] = system: DLD-1; experiment: AlamarBlue cell viability assay, DLD-1; assay type: cell-based; settings: Homo sapiens, Colon
Description: as §3, §2

[11] = system: PC3; experiment: AlamarBlue cell viability assay, PC3; assay type: cell-based; settings: Homo sapiens, PC-3, Prostate
Description: as §3, §2

[12] = system: CAL62; experiment: AlamarBlue cell viability assay, CAL62; assay type: cell-based; settings: Homo sapiens, CAL-62, Thyroid
Description: as §3, §2

[13] = system: OGK-M; experiment: AlamarBlue cell viability assay, OGK-M; assay type: cell-based; settings: Homo sapiens, Thyroid
Description: as §3, §2

[14] = system: AGS; experiment: AlamarBlue cell viability assay, AGS; assay type: cell-based; settings: Homo sapiens, Gastric
Description: as §3, §2

[15] = system: MKN-28; experiment: AlamarBlue cell viability assay, MKN-28; assay type: cell-based; settings: Homo sapiens, Gastric
Description: as §3, §2

[16] = system: TFF3-high expressing mammary carcinoma (MC) cell lines; experiment: AlamarBlue viability and Annexin V-FITC/PI flow cytometry in mammary carcinoma cell lines (FIG. 1); assay type: cell-based, human
Source text: (A) Inhibitory concentration 50% (IC50) values for compound 43 in the MC cell lines are tabulated, using an AlamarBlue™ cell viability assay as previously described in Pandey V et al., Breast Cancer Res. 2014; 16(5):429. (B) Measured dose-dependent manner effect of compound 43 on the viability of MC cells (left-side, TFF3-high and right, TFF3-low) using AlamarBlue™ viability assay as previously described (ibid). (C) Apoptotic cell death of mammary carcinoma cell lines measured after treatment with 10 μM compound 43 using flow cytometry analysis at 24 hour as described previously in Keerthy H K et al., PloS one. 2014; 9(9):e107118. Annexin V-FITC staining is indicated on the X-axis and PI staining on the Y-axis. […] Acquisition of Annexin V and PI data were represented as percentage (%) in each quadrant. Note: CM, conditioned media; MCF10A and MCF12A, non-transformed immortalized-mammary epithelial cell line. Points are mean of triplicate experiments; bars, ±SD. Statistical significance was assessed by using an unpaired two-tailed Student's t test (P<0.05 was considered as significant) using GraphPad Prism5. Columns are mean of triplicate experiments; bars, ±SD. **P<0.001, *P<0.05.

[17] = system: TFF3-high expressing mammary carcinoma cell (MCF7, BT474, MDA-MB-361); experiment: Cell viability in 3D Matrigel culture, AlamarBlue (FIG. 4); assay type: cell-based, human; settings: cultured 14 days in 3D Matrigel, vs vehicle (DMSO)
Description: Cell viability in colonies generated by MCF7, BT474 and MDA-MB-361 cell after exposure with compound 43 or vehicle (DMSO) cultured 14 days in 3D Matrigel using AlamarBlue™ viability assay as previously described in Pandey V et al., Breast Cancer Res. 2014; 16(5):429. Microscopic visualization (right side) of colonies generated by BT474 and MCF7 cells after exposure with compound 43 or vehicle (DMSO) cultured 14 days in 3D Matrigel. On days 5, 8 and 11, colonies were treated with compound 43 or DMSO. Statistical significance was assessed by using an unpaired two-tailed Student's t test (P<0.05 was considered as significant) using GraphPad Prism5.

Q: Cc1cc(-c2ccc(C3C(C#N)=C(N)Oc4c3c(=O)oc3ccccc43)cc2)cnc1F (stereo not drawn) [Compound 43, 2-Amino-4-(4-(6-fluoro-5-methylpyridin-3-yl)phenyl)-5-oxo-4H,5H-pyrano[3,2-c]chromene-3-carbonitrile] was tested. Which IC50 [1] did it give?
A: Its IC50 is 5.24 µM.

Q: And the IC50 [2]?
A: Its IC50 is 468 µM.

Q: And the IC50 [3]?
A: The IC50 was 396 µM.

Q: What about the IC50 [4] of the same compound?
A: The IC50 was 4.64 µM.

Q: What about the IC50 [5] of the same compound?
A: Its IC50 is 289 µM.

Q: And the IC50 [6]?
A: Its IC50 is 3.92 µM.

Q: And the IC50 [7]?
A: The IC50 was 18.6 µM.

Q: What about the IC50 [8] of the same compound?
A: Its IC50 is 24.2 µM.

Q: And the IC50 [9]?
A: Its IC50 is 8.44 µM.

Q: What about the IC50 [10] of the same compound?
A: The IC50 was 4.12 µM.

Q: What about the IC50 [11] of the same compound?
A: The IC50 was 680 nM.

Q: What about the IC50 [12] of the same compound?
A: Its IC50 is 33.1 µM.

Q: And the IC50 [13]?
A: Its IC50 is 411 µM.

Q: What about the IC50 [14] of the same compound?
A: The IC50 was 3.08 µM.

Q: And the IC50 [15]?
A: Its IC50 is 84.9 µM.

Q: And the apoptosis ([16]; 10 μM, 24 hour, Annexin V-FITC/PI flow cytometry)?
A: Its apoptosis is “stimulates apoptosis”.

Q: And the cell viability ([16]; AlamarBlue)?
A: Its cell viability is “suppresses cell viability”.

Q: And the “cell viability in Matrigel 3D culture” value [17]?
A: The value was “suppresses cell viability”.
